This is an account of results in US20050014675A1, “Cell migration inhibitor” (priority 2001, published 2005).

What all share (format): cell-based
The subject of test [1] is human vascular smooth muscle cells. The test is described as follows: PDGF-induced migration of human vascular smooth muscle cells (Boyden's chamber). The conditions noted are these: for action on the PDGF-induced migration of vascular smooth muscle cells (summary of Test 1): Test 1, summary statement; for suppressive action on PDGF-induced migration / action on PDGF-induced migration: human vascular smooth muscle cells, FIG. 4; for suppressive action on PDGF-induced migration: compound at 10 nM. Here is the method:
(§1) Human vascular smooth muscle cells were cultured in SmBM with the additive factors in a culture incubator (37° C., 5% CO2/95% air) and cells at the 5th-9th passage were used in the test. Rabbit vascular smooth muscle cells were obtained by an explant technique from the media of rabbit thoracic aorta and cultured in DMEM with 10% fetal bovine serum; cells at the 5th-7th passage were used in the test.
(§2) Cells that proliferated to confluence were detached with trypsin, washed twice with an additive factor free medium, dispersed in SmBM containing 0.1% fetal bovine serum and prepared to a cell density of 5×10^5 cells/mL. Migration of cells was assayed according to Koyama et al. method (J. Biol. Chem. (1993) 268:13301-13308) using a 48-well Boyden's chamber (Neuro probe). To be more specific, 28 μL of SmBM containing 10 ng/mL of PDGF and 0.1% FBS was placed in the lower chamber and 50 μL of a cell dispersion preliminarily incubated with each assay compound for 10 minutes was placed in the upper chamber. The upper chamber and the lower chamber were separated by a polycarbonate filter (having pores 8 μm in diameter) precoated with type I collagen (Nitta Gelatin Inc.) Since the placement of the cell dispersion, the Boyden's chamber was incubated in a culture incubator (37° C., 5% CO2/95% air) for 4 hours. The cells on the upper side of the filter were scraped off and the cells that had migrated to the lower side of the filter were fixed in methanol and stained with Diff-Quick staining solution (International Reagents Corporation). The filter had been air-dried on a glass slide and sealed with Enteran New. The cells were counted under a high-power microscope (×200) in 4 fields per well and the number of cells that had migrated was averaged to determine the migration activity.
The result of each treated group was represented by the mean±standard deviation for 3 wells. Statistical significance was estimated by one-way ANOVA, if p value was less than 5%, followed by Dunnett method to compare between vehicle-treated group and the others in the presence of a migration inducer. Values of p less than 5% were considered to be significant.

Another test has as its system Human mesangial cells. The test is described as follows: PDGF-induced migration of human mesangial cells (Boyden's chamber). As to the method: as §2, with “activity. […]” for “activity.”
The test system of test [2] is rabbit vascular smooth muscle cells. The test is described as follows: PDGF-induced migration of rabbit vascular smooth muscle cells (Boyden's chamber). The conditions noted are these: treatment with 10 nM, FIG. 3. Here is the method: as §1
Cells that proliferated to confluence were detached with trypsin, washed twice with an additive factor free medium, dispersed in SmBM containing 0.1% fetal bovine serum and prepared to a cell density of 5×10^5 cells/mL. Migration of cells was assayed according to Koyama et al. method (J. Biol. Chem. (1993) 268:13301-13308) using a 48-well Boyden's chamber (Neuro probe). To be more specific, 28 μL of SmBM containing 10 ng/mL of PDGF and 0.1% FBS was placed in the lower chamber and 50 μL of a cell dispersion preliminarily incubated with each assay compound for 10 minutes was placed in the upper chamber. […] The cells were counted under a high-power microscope (×200) in 4 fields per well and the number of cells that had migrated was averaged to determine the migration activity. […]

Counter-ions that a name gives are not always drawn. Non-standard residues stand in square brackets, D forms with d. Residues, ends and D or L forms follow the SMILES beside them. No end group written: not given here. dTrp(2-Me) = Cc1[nH]c2ccccc2c1C[C@@H](N)C(=O)O; d2Nal = N[C@H](Cc1ccc2ccccc2c1)C(=O)O Where only a bound is given, the exact number is not on record here.

With GHRP-6, in test [1], the “action on the PDGF-induced migration of vascular smooth muscle cells (summary of Test 1)” value (“action on the PDGF-induced migration” below) is “potent inhibitory action” and the “suppressive action on PDGF-induced migration” value (shortened to “suppressive action”) was “significant suppressive action”.
Regarding `C[C@H](NC(=O)[C@@H](Cc1ccc2ccccc2c1)NC(=O)[C@@H](C)N)C(=O)N[C@@H](Cc1c[nH]c2ccccc12)C(=O)N[C@H](Cc1ccccc1)C(=O)N[C@@H](CCCCN)C(N)=O` [KP-102, Pralmorelin dihydrochloride] (H-[dA][d2Nal]AW[dF]K-NH2), the “concentration with significant suppression of PDGF-induced migration” value with Human mesangial cells (FIG. 8) is no less than 0.1 nM. Besides, the “action on the PDGF-induced migration” value in test [1] is given as “potent inhibitory action”. Also, the “suppressive action” value in test [2] is given as “significant suppressive action”.
Consider `Cc1[nH]c2ccccc2c1C[C@@H](NC(=O)[C@@H](N)Cc1cnc[nH]1)C(=O)N[C@@H](C)C(=O)N[C@@H](Cc1c[nH]c2ccccc12)C(=O)N[C@H](Cc1ccccc1)C(=O)N[C@@H](CCCCN)C(N)=O` [hexarelin] (H-H[dTrp(2-Me)]AW[dF]K-NH2), for which, in test [1], the “action on the PDGF-induced migration” value is listed as “potent inhibitory action” and the “suppressive action” value was “significant suppressive action”.
On the same counts, the results for `CN1N=C2CCN(C(=O)[C@@H](COCc3ccccc3)NC(=O)C(C)(C)N)C[C@@]2(Cc2ccccc2)C1=O` [CP-424,391, capromorelin] are “potent inhibitory action” and “significant suppressive action”.
Consider “GHRH: human-type growth-hormone releasing hormone (Peptide Institute, Inc.) (YADAIFTNSYRKVLGQLSARKLLQDIMSRQQGESNQERGARARL; ends and bridges not checked; UniProt P01286 32-75, looked up)”, for which the “action on the PDGF-induced migration” value in test [1] is listed as “no action”. Also, the “action on PDGF-induced migration” value in test [1] (at 10 nM) is on record as “no action”.
Regarding “GH: recombinant human growth hormone (Wako Pure Chemical Industries, Ltd.)”, the “action on the PDGF-induced migration” value in test [1] is on record as “no action”. For the same molecule, the “action on PDGF-induced migration” value in test [1] (at 0.1 μg/mL) is “no action”.
Consider `CC(C)(N)C(=O)N[C@H](COCc1ccccc1)C(=O)N1CCC2(CC1)CN(S(C)(=O)=O)c1ccccc12` [MK-0677, ibutamorelin methanesulfonate], for which, in test [1], the “action on the PDGF-induced migration” value is recorded as “potent inhibitory action” and the “suppressive action” value is “significant suppressive action”.
`CNC(=O)[C@@H](Cc1ccccc1)N(C)C(=O)[C@@H](Cc1ccc2ccccc2c1)N(C)C(=O)/C=C/CC(C)(C)N` [NN-703, tabimorelin]: in test [1], the “action on the PDGF-induced migration” value is recorded as “potent inhibitory action” and the “suppressive action” value is listed as “significant suppressive action”.
Take ghrelin: the “suppression of PDGF-induced migration” value in the test on Human mesangial cells (FIG. 9) is given as “This action was also verified”. Besides, in test [1], the “action on the PDGF-induced migration” value is on record as “potent inhibitory action”. In test [2], the “suppressive action” value is listed as “significant suppressive action”.
